Test results taken from ChEMBL document CHEMBL1137357, “Further synthetic and biological studies on vitamin D hormone antagonists based on C24-alkylation and C2alpha-functionalization of 25-dehydro-1alpha-hydroxyvitamin D(3)-26,23-lactones” (J Med Chem, 2006).

Target: T1, Vitamin D3 receptor (Homo sapiens) (UniProt P11473)
T1 sequence (whole entry): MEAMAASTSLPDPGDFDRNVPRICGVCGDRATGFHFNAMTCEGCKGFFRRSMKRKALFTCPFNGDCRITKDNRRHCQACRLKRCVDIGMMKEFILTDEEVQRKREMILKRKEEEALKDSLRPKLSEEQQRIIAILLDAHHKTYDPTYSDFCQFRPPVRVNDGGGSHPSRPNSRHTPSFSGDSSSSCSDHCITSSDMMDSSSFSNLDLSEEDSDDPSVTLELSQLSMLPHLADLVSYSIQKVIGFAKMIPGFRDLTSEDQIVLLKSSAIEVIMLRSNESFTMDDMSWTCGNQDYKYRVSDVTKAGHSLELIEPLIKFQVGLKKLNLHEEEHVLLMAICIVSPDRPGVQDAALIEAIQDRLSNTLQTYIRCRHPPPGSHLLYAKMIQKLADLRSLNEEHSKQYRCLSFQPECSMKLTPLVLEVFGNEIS
Assay: Antagonist activity against 1-alpha,25-dihydroxy vitamin D3-induced HL60 cell differentiation by NBT reduction method relative to TEI-9647
Assay type: functional, cell-based
Parameters: scale not given: the % may be the effect or the level left
Settings: HL-60

Structure (SMILES) | Activity
C=C1C(=O)O[C@H](C[C@@H](C)[C@H]2CC[C@H]3/C(=C/C=C4/C[C@@H](O)C[C@H](O)C4=C)CCC[C@]23C)[C@@H]1CCC | 38%
C=C1/C(=C\C=C2/CCC[C@]3(C)[C@@H]([C@H](C)C[C@@H]4OC(=O)C(=C)[C@@H]4CCCC)CC[C@@H]23)C[C@@H](O)[C@H](OCCCO)[C@@H]1O | 1660%
C=C1/C(=C\C=C2/CCC[C@]3(C)[C@@H]([C@H](C)C[C@H]4OC(=O)C(=C)[C@@H]4CCCC)CC[C@@H]23)C[C@@H](O)[C@H](OCCCO)[C@@H]1O | 88%
C=C1/C(=C\C=C2/CCC[C@]3(C)[C@@H]([C@H](C)C[C@@H]4OC(=O)C(=C)[C@H]4CCCC)CC[C@@H]23)C[C@@H](O)[C@H](OCCCO)[C@@H]1O | 205%
C=C1/C(=C\C=C2/CCC[C@]3(C)[C@@H]([C@H](C)C[C@H]4OC(=O)C(=C)[C@@H]4CCCC)CC[C@@H]23)C[C@@H](O)[C@H](CCCO)[C@@H]1O | 303%
C=C1/C(=C\C=C2/CCC[C@]3(C)[C@@H]([C@H](C)C[C@@H]4OC(=O)C(=C)[C@@H]4C)CC[C@@H]23)C[C@@H](O)[C@H](CCCO)[C@@H]1O | 517%
C=C1/C(=C\C=C2/CCC[C@]3(C)[C@@H]([C@H](C)C[C@@H]4OC(=O)C(=C)[C@@H]4CCCC)CC[C@@H]23)C[C@@H](O)[C@H](C)[C@@H]1O | 2910%
C=C1/C(=C\C=C2/CCC[C@]3(C)[C@@H]([C@H](C)C[C@@H]4OC(=O)C(=C)C4(C)C)CC[C@@H]23)C[C@@H](O)C[C@@H]1O | 1170%
C=C1/C(=C\C=C2/CCC[C@]3(C)[C@@H]([C@H](C)C[C@H]4OC(=O)C(=C)C4(C)C)CC[C@@H]23)C[C@@H](O)C[C@@H]1O | 16%
C=C1/C(=C\C=C2/CCC[C@]3(C)[C@@H]([C@H](C)C[C@@H]4OC(=O)C(=C)[C@@H]4CCC)CC[C@@H]23)C[C@@H](O)[C@H](OCCCO)[C@@H]1O | 85100%
C=C1/C(=C\C=C2/CCC[C@]3(C)[C@@H]([C@H](C)C[C@H]4OC(=O)C(=C)[C@@H]4CC(C)C)CC[C@@H]23)C[C@@H](O)[C@H](C)[C@@H]1O | 4%
C=C1/C(=C\C=C2/CCC[C@]3(C)[C@@H]([C@H](C)C[C@H]4OC(=O)C(=C)[C@@H]4CCC)CC[C@@H]23)C[C@@H](O)[C@H](OCCCO)[C@@H]1O | 124%
C=C1/C(=C\C=C2/CCC[C@]3(C)[C@@H]([C@H](C)C[C@@H]4OC(=O)C(=C)[C@H]4CC(C)C)CC[C@@H]23)C[C@@H](O)[C@H](OCCCO)[C@@H]1O | 291%
C=C1C(=O)O[C@H](C[C@@H](C)[C@H]2CC[C@H]3/C(=C/C=C4/C[C@@H](O)[C@H](CCCO)[C@H](O)C4=C)CCC[C@]23C)[C@@H]1C | 30%
C=C1C(=O)O[C@H](C[C@@H](C)[C@H]2CC[C@H]3/C(=C/C=C4/C[C@@H](O)C[C@H](O)C4=C)CCC[C@]23C)[C@@H]1CC | 13%
C=C1/C(=C\C=C2/CCC[C@]3(C)[C@@H]([C@H](C)C[C@@H]4OC(=O)C(=C)[C@H]4CC)CC[C@@H]23)C[C@@H](O)[C@H](CCCO)[C@@H]1O | 866%
C=C1/C(=C\C=C2/CCC[C@]3(C)[C@@H]([C@H](C)C[C@@H]4OC(=O)C(=C)[C@@H]4C)CC[C@@H]23)C[C@@H](O)[C@H](OCCCO)[C@@H]1O | 1970%
C=C1/C(=C\C=C2/CCC[C@]3(C)[C@@H]([C@H](C)C[C@@H]4OC(=O)C(=C)[C@H]4CC)CC[C@@H]23)C[C@@H](O)[C@H](OCCCO)[C@@H]1O | 158%
C=C1C(=O)O[C@H](C[C@@H](C)[C@H]2CC[C@H]3/C(=C/C=C4/C[C@@H](O)[C@H](OCCCO)[C@H](O)C4=C)CCC[C@]23C)[C@@H]1C | 41%
C=C1/C(=C\C=C2/CCC[C@]3(C)[C@@H]([C@H](C)C[C@@H]4OC(=O)C(=C)[C@H]4CC(C)C)CC[C@@H]23)C[C@@H](O)[C@H](C)[C@@H]1O | 229%

Structure (SMILES) | Activity
C=C1/C(=C\C=C2/CCC[C@]3(C)[C@@H]([C@H](C)C[C@H]4OC(=O)C(=C)[C@H]4CC)CC[C@@H]23)C[C@@H](O)[C@H](C)[C@@H]1O | 74%
C=C1C[C@@H](C[C@@H](C)[C@H]2CC[C@H]3/C(=C/C=C4/C[C@@H](O)[C@H](C)[C@H](O)C4=C)CCC[C@]23C)OC1=O | 38%
C=C1/C(=C\C=C2/CCC[C@]3(C)[C@@H]([C@H](C)C[C@H]4OC(=O)C(=C)[C@@H]4CCCC)CC[C@@H]23)C[C@@H](O)[C@H](C)[C@@H]1O | 1%
C=C1/C(=C\C=C2/CCC[C@]3(C)[C@@H]([C@H](C)C[C@@H]4OC(=O)C(=C)[C@@H]4CCCC)CC[C@@H]23)C[C@@H](O)C[C@@H]1O | 179%
C=C1C[C@@H](C[C@@H](C)[C@H]2CC[C@H]3/C(=C/C=C4/C[C@@H](O)[C@H](CCCO)[C@H](O)C4=C)CCC[C@]23C)OC1=O | 100%
C=C1/C(=C\C=C2/CCC[C@]3(C)[C@@H]([C@H](C)C[C@@H]4OC(=O)C(=C)[C@@H]4CC)CC[C@@H]23)C[C@@H](O)[C@H](CCCO)[C@@H]1O | 442%
C=C1/C(=C\C=C2/CCC[C@]3(C)[C@@H]([C@H](C)C[C@H]4OC(=O)C(=C)[C@H]4CC(C)C)CC[C@@H]23)C[C@@H](O)[C@H](C)[C@@H]1O | 50%
C=C1/C(=C\C=C2/CCC[C@]3(C)[C@@H]([C@H](C)C[C@H]4OC(=O)C(=C)[C@@H]4CC)CC[C@@H]23)C[C@@H](O)[C@H](C)[C@@H]1O | 18%
C=C1/C(=C\C=C2/CCC[C@]3(C)[C@@H]([C@H](C)C[C@H]4OC(=O)C(=C)[C@H]4CC(C)C)CC[C@@H]23)C[C@@H](O)[C@H](CCCO)[C@@H]1O | 31%
C=C1/C(=C\C=C2/CCC[C@]3(C)[C@@H]([C@H](C)C[C@H]4OC(=O)C(=C)[C@H]4CC)CC[C@@H]23)C[C@@H](O)[C@H](CCCO)[C@@H]1O | 18%
C=C1C(=O)O[C@@H](C[C@@H](C)[C@H]2CC[C@H]3/C(=C/C=C4/C[C@@H](O)C[C@H](O)C4=C)CCC[C@]23C)[C@@H]1CC | 70%
C=C1/C(=C\C=C2/CCC[C@]3(C)[C@@H]([C@H](C)C[C@H]4OC(=O)C(=C)[C@@H]4C)CC[C@@H]23)C[C@@H](O)C[C@@H]1O | 7%
C=C1C(=O)O[C@@H](C[C@@H](C)[C@H]2CC[C@H]3/C(=C/C=C4/C[C@@H](O)[C@H](C)[C@H](O)C4=C)CCC[C@]23C)[C@@H]1C | 6190%
C=C1/C(=C\C=C2/CCC[C@]3(C)[C@@H]([C@H](C)C[C@H]4OC(=O)C(=C)[C@@H]4CC)CC[C@@H]23)C[C@@H](O)C[C@@H]1O | 6%
C=C1C(=O)O[C@H](C[C@@H](C)[C@H]2CC[C@H]3/C(=C/C=C4/C[C@@H](O)C[C@H](O)C4=C)CCC[C@]23C)[C@@H]1CCCC | 17%
C=C1C(=O)O[C@H](C[C@@H](C)[C@H]2CC[C@H]3/C(=C/C=C4/C[C@@H](O)[C@H](C)[C@H](O)C4=C)CCC[C@]23C)[C@@H]1C | 476%
C=C1/C(=C\C=C2/CCC[C@]3(C)[C@@H]([C@H](C)C[C@@H]4OC(=O)C(=C)[C@@H]4CC(C)C)CC[C@@H]23)C[C@@H](O)[C@H](CCCO)[C@@H]1O | 989%
C=C1/C(=C\C=C2/CCC[C@]3(C)[C@@H]([C@H](C)C[C@H]4OC(=O)C(=C)[C@@H]4CCCC)CC[C@@H]23)C[C@@H](O)C[C@@H]1O | 4%
C=C1/C(=C\C=C2/CCC[C@]3(C)[C@@H]([C@H](C)C[C@H]4OC(=O)C(=C)[C@H]4CCC)CC[C@@H]23)C[C@@H](O)[C@H](C)[C@@H]1O | 170%
